Reference: patent US20140255518A1, “Treatment and Prevention of Gastrointestinal Syndrome” (THOMAS JEFFERSON UNIVERSITY HOSPITALS, INC., priority 2011, published 2014)
Read-outs that look alike come from different tables or passages of the source. No end group written: not given here.

How the values were obtained:
[1] = system: HCT116 cells (P53 wildtype); assay: IR-induced cell death after cGMP preconditioning, HCT116 (P53 wildtype); type: cell-based, human; conditions: HCT116 cells (P53 wildtype) preconditioned with cGMP; FIG. 3 (A)
Method: (§1) Experiments were performed to show the requirement of GCC activation in the protection of small intestine and colon cells from apoptosis and genotoxic induced cell death. The role of activation of GCC and of the presence of p53 was also evaluated. Test on cancer cells were performed to compare the protection by cGMP of colon cancer cells from cell death in compared to cGMP's potentiation of cell death in other cancers.

[2] = system: HCT116P53−/− cells (P53 null); assay: IR-induced cell death after cGMP preconditioning, HCT116 P53 null; type: cell-based, human; conditions: HCT116P53−/− cells (P53 null) preconditioned with cGMP; FIG. 3 (B)
Method: as §1

human colon cells = assay: Cell death after irinotecan (CPT11) challenge, human colon cells; type: cell-based; conditions: irinotecan (CPT11, 100 μM)
Method: as §1

[3] = system: human breast cancer cells; assay: CPT11-induced cell death after cGMP preconditioning, breast cancer cells; type: cell-based; conditions: cGMP precondition
Method: as §1

human liver cancer cells = assay: CPT11-induced cell death after cGMP preconditioning, liver cancer cells; type: cell-based; conditions: cGMP precondition
Method: as §1

[4] = system: human prostate cancer cells; assay: CPT11-induced cell death after cGMP preconditioning, prostate cancer cells; type: cell-based; conditions: cGMP precondition
Method: as §1

HCT116 cells = assay: CPT11-induced cell death after cGMP preconditioning, HCT116 cells; type: cell-based, human; conditions: HCT116 cells preconditioned with cGMP
Method: as §1

[5] = system: irradiated intestinal tissue; conditions: cited from earlier work
[6] = biological target: ST receptors / guanylate cyclase (Homo sapiens, UniProt P25092); conditions: compared with native ST; cited from earlier work
Chain of ST receptors / guanylate cyclase (P25092 24-1073): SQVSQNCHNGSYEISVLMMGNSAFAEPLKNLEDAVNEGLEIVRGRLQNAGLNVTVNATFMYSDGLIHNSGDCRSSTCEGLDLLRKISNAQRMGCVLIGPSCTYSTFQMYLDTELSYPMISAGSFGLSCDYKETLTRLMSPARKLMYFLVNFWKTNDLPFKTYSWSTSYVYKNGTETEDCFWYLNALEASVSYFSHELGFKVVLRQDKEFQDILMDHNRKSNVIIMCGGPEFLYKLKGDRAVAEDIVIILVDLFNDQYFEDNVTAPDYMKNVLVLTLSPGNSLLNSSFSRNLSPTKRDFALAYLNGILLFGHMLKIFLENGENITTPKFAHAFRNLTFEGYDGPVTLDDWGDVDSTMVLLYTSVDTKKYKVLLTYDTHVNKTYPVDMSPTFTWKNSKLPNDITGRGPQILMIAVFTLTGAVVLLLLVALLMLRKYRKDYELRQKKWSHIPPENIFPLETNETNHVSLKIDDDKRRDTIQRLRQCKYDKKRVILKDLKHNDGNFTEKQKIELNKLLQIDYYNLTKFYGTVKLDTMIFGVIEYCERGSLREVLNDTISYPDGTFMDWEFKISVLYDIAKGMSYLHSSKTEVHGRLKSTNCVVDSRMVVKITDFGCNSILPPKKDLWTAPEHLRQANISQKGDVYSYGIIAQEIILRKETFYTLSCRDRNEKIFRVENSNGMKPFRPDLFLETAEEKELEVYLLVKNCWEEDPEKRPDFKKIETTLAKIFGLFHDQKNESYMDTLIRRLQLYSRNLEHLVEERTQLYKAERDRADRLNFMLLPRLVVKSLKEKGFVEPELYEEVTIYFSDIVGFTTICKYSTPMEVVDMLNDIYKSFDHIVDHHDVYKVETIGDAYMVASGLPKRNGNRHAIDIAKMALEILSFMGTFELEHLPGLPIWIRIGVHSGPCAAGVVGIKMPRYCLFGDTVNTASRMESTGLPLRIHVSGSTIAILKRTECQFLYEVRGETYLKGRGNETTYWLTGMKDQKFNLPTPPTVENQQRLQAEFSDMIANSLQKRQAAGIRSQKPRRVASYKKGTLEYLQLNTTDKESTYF

With `Nc1nc2c(ncn2[C@@H]2O[C@@H]3COP(=O)(O)O[C@H]3[C@H]2O)c(=O)[nH]1` [cGMP, cyclic GMP] the IR-induced cell death [1] was “resisted IR-induced cell death”, the “protection from IR-induced cell death” value [2] was “protection by cGMP preconditioning did not occur” and the “cell death in response to irinotecan challenge” value (human colon cells) was “protected cell death”. The “cell death induced by CPT11” value [3] was “promoted cell death”, the “cell death induced by CPT11” value (human liver cancer cells) was “promoted cell death” and the “cell death induced by CPT11” value [4] was “promoted cell death”. The CPT11-induced cell death (HCT116 cells) was “resisted CPT11-induced cell death”, the “P53 dependence of protection from CPT11-induced cell death” value (HCT116 cells) was “protection was P53 dependent” and the “level of apoptosis in irradiated intestinal tissue” value ([5]; mice lacking genes encoding GCC or uroguanylin, cGMP supplementation (cGMP analog injected)) was “ameriolated the level of apoptosis”. For the same compound, the “level of apoptosis in irradiated intestinal tissue” value ([5]; wild type mice, cGMP supplementation) was “not in wild type mice”.
In the case of “Guanylin: 15 amino acid peptide from mammalian intestine, about 50% sequence homology to ST; native GCC agonist (SEQ ID NO:6, 54) (PGTCEICAYAACTGC; ends and bridges not checked; cysteine pairing not given here; UniProt Q02747 101-115, looked up)”, the “binding to ST receptors and activation of guanylate cyclase, level relative to native ST” value [6] is given as 10- to 100 fold less than native ST.
